In patent US20260092061A1, “COMPOUNDS FOR TARGETED PROTEIN DEGRADATION” (Amphista Therapeutics Limited, priority 2022, published 2026) one finds DC50 and Dmax data, which are given here for 13 compounds.

In general, DC50 refers to the concentration at which degradation of the target reaches its halfway point. The term Dmax denotes the largest share of the target that was removed.

Test [1] addresses T1, BRD9 (Homo sapiens, UniProt Q9H8M2).
T1 sequence (Q9H8M2 1-597): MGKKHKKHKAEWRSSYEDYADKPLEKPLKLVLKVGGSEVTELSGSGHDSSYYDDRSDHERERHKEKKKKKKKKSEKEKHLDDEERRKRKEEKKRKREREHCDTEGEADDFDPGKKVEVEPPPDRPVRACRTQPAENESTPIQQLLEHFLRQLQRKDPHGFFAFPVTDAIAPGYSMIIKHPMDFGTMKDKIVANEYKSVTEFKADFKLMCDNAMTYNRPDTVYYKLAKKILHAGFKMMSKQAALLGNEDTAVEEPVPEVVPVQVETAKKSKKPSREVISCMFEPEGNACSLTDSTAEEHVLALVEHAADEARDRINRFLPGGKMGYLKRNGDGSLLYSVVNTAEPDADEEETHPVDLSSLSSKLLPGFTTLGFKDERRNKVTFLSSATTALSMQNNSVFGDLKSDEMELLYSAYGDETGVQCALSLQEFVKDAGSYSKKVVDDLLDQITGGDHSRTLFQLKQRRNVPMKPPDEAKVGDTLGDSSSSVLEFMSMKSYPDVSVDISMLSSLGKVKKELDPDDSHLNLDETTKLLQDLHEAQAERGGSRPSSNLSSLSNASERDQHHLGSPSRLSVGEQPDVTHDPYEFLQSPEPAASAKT
Description: BRD9 degradation, HiBiT-BRD9 KI HEK293 (LgBiT) cells, NanoGlo Lytic Endpoint assay (Assay Protocol 1). The note with it: Assay protocol 1, BRD9 degradation; for DC50: read-out: DC50; for Dmax: HEK293, read-out: Dmax. It counts as cell-based. Summed up: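 HiBiT-tagged BRD9 knock-in HEK293 (LgBiT) cells exposed to compounds for 6 h at 37 °C, 5% CO2. Residual BRD9 measured by HiBiT lytic luminescence. % BRD9 remaining normalised to DMSO-treated cells (high) and no-cell wells (low).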
A general note: HiBiT is a short tag that completes a luciferase, so light tracks the accessible tagged protein.

Test [2] addresses T1, BRD9. The test is described as follows: Degradation of BRD9 (IF), immunofluorescence in MV4-11 cells, 24 hours (Assay Protocol 2). It counts as cell-based. More on the design: A suspension of MV4-11 cells (ATCC CRL-9591) was prepared; host or cells: MV4-11. The note with it: BRD9 degradation; for DC50: Assay protocol 2, read-out: DC50; for Dmax: MV4-11, Assay protocol 2, read-out: Dmax. Summed up:
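% BRD9 remaining, scaled between DMSO (high) and 100 nM CFT-8634 (low) control wells, derives from mean Alexa 647 contrast in central nuclei by high-content imaging. MV4-11 cells had 24 h compound exposure at 37° C. before PFA fixation, Triton permeabilisation and anti-BRD9 E4Q3F immunostaining.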

Structures are written as SMILES.

On to `COc1cc(-c2cn(C)c(=O)c(C)c2C)cc(OC)c1CN1CCC2(CC1)CCN(c1cccc3c1CCN(C(=O)/C(C#N)=C/C(C)(C)C)C3C)CC2` (mixture of isomers) [Compound B39, (E/Z)-2-(5-(9-(2,6-dimethoxy-4-(1,4,5-trimethyl-6-oxo-1,6-dihydropyridin-3-yl)benzyl)-3,9-diazaspiro[5.5]undecan-3-yl)-1-methyl-1,2,3,4-tetrahydroisoquinoline-2-carbonyl)-4,4-dimethylpent-2-enenitrile], for which the half-maximal degradation concentration (DC50) was in the range of 25 to 1000 nM in test [1] and 10 to 25 nM in test [2]. Moreover, the Dmax in test [1] is more than 75%; in test [2], 40 to 70%.

Consider `COc1cc(-c2cn(C)c(=O)c(C)c2C)cc(OC)c1CN1CCC2(C1)CN(c1cccc3c1CCN(C(=O)/C(C#N)=C/C(C)(C)C)C3C)C2` (mixture of isomers) [Compound B40, (E/Z)-2-(5-(6-(2,6-dimethoxy-4-(1,4,5-trimethyl-6-oxo-1,6-dihydropyridin-3-yl)benzyl)-2,6-diazaspiro[3.4]octan-2-yl)-1-methyl-1,2,3,4-tetrahydroisoquinoline-2-carbonyl)-4,4-dimethylpent-2-enenitrile], for which the DC50 in test [1] and in test [2] was less than 1.25 nM throughout. For the same compound, the Dmax in test [1] and in test [2] was 40 to 70% throughout.

Take `COc1cc(-c2cn(C)c(=O)c(C)c2C)cc(OC)c1CN1CCN(c2cccc(C3CCCN3C(=O)/C(C#N)=C/C(C)(C)C)c2)CC1` (mixture of isomers) [Compound B41, (E/Z)-2-(2-(3-(4-(2,6-dimethoxy-4-(1,4,5-trimethyl-4-oxo-1,6-dihydropyridin-3-yl)benzyl)piperazin-1-yl)phenyl)pyrrolidine-1carbonyl)-4,4-dimethylpent-2-enenitrile]: the DC50 is 1.25 to 10 nM in test [1] and 10 to 25 nM in test [2]. The Dmax in test [1] and in test [2] was more than 75% throughout.

Regarding `COc1cc(-c2cn(C)c(=O)c(C)c2C)cc(OC)c1CN1CCN(c2ccc(C3CCCN3C(=O)/C(C#N)=C/C(C)(C)C)cc2)CC1` (mixture of isomers) [Compound B42, (E/Z)-2-(2-(4-(4-(2,6-dimethoxy-4-(1,4,5-trimethyl-6-oxo-1,6-dihydropyridin-3-yl)benzyl)piperazin-1-yl)phenyl)pyrrolidine-1-carbonyl)-4,4-dimethylpent-2-enenitrile], in test [1], the DC50 lay in the range of 10 to 25 nM and the Dmax lay within 40 to 70%. The Dmax in test [2] lay within 40 to 70%.

Turning to `COc1cc(-c2cn(C)c(=O)c(C)c2C)cc(OC)c1CN1CCC(Oc2cccc3c2CCN(C(=O)/C(C#N)=C/C(C)(C)C)C3C)CC1` (mixture of isomers) [Compound B44, (E/Z)-2-(5-((1-(2,6-dimethoxy-4-(1,4,5-trimethyl-6-oxo-1,6-dihydropyridin-3-yl)benzyl)piperidin-4-yl)oxy)-1-methyl-1,2,3,4-tetrahydroisoquinoline-2-carbonyl)-4,4-dimethylpent-2-enenitrile], in test [1], the DC50 was less than 1.25 nM and the Dmax is more than 75%. In test [2], the DC50 was less than 1.25 nM and the Dmax fell in the range of 40 to 70%.

Turning to `COc1cc(-c2cn(C)c(=O)c(C)c2C)cc(OC)c1CN1CCN(Cc2cccc3c2CCN(C(=O)/C(C#N)=C/C24CC(C2)C4)C3C)CC1` (mixture of isomers) [Compound B45, (E/Z)-3-(bicyclo[1.1.1]pentan-1-yl)-2-(5-((4-(2,6-dimethoxy-4-(1,4,5-trimethyl-6-oxo-1,6-dihydropyridin-3-yl)benzyl)piperazin-1-yl)methyl)-1-methyl-1,2,3,4-tetrahydroisoquinoline-2-carbonyl)acrylonitrile], in test [1], the DC50 was less than 1.25 nM and the maximal degradation (Dmax) is more than 75%. Besides, in test [2], the DC50 is less than 1.25 nM and the greatest degradation seen (Dmax) is more than 75%.

For the compound `COc1cc(-c2cn(C)c(=O)c(C)c2C)cc(OC)c1C(=O)N1CCN(Cc2cccc(C3CCCN3C(=O)/C(C#N)=C/C(C)(C)C)c2)CC1` (mixture of isomers) [Compound B46, (E/Z)-2-(2-(3-((4-(2,6-dimethoxy-4-(1,4,5-trimethyl-6-oxo-1,6-dihydropyridin-3-yl)benzoyl)piperazin-1-yl)methyl)phenyl)pyrrolidine-1-carbonyl)-4,4-dimethylpent-2-enenitrile], in test [1], the DC50 is 10 to 25 nM and the greatest degradation seen (Dmax) was more than 75%. Moreover, in test [2], the 50% degradation concentration (DC50) is 1.25 to 10 nM and the Dmax was more than 75%.

In the case of `COc1cc(-c2cn(C)c(=O)c(C)c2C)cc(OC)c1CN1CCN(Cc2cccc3c2CCN(C(=O)/C(C#N)=C/C(C)(C)C)C3C)C2(CC2)C1` (mixture of isomers) [Compound B47, (E/Z)-2-(5-((7-(2,6-dimethoxy-4-(1,4,5-trimethyl-6-oxo-1,6-dihydropyridin-3-yl)benzyl)-4,7-diazaspiro[2.5]octan-4-yl)methyl)-1-methyl-1,2,3,4-tetrahydroisoquinoline-2-carbonyl)-4,4-dimethylpent-2-enenitrile], in test [1], the DC50 is less than 1.25 nM and the greatest degradation seen (Dmax) is more than 75%. Moreover, in test [2], the half-maximal degradation concentration (DC50) was less than 1.25 nM and the greatest degradation seen (Dmax) was more than 75%.

Consider `COc1cc(-c2cn(C)c(=O)c(C)c2C)cc(OC)c1CN1CCN(Cc2cccc3c2CCN(C(=O)/C(C#N)=C/c2ncccc2C(F)(F)F)C3C)CC1` (mixture of isomers) [Compound B49, (E/Z)-2-(5-((4-(2,6-dimethoxy-4-(1,4,5-trimethyl-6-oxo-1,6-dihydropyridin-3-yl)benzyl)piperazin-1-yl)methyl)-1-methyl-1,2,3,4-tetrahydroisoquinoline-2-carbonyl)-3-(3-(trifluoromethyl)pyridin-2-yl)acrylonitrile], for which, in test [1], the DC50 was less than 1.25 nM and the maximal degradation (Dmax) fell in the range of 40 to 70%. Further, in test [2], the DC50 fell in the range of 10 to 25 nM and the Dmax lay within 40 to 70%.

Turning to `COc1cc(-c2cn(C)c(=O)c(C)c2C)cc(OC)c1CN1CCN(Cc2cccc3c2CCN(C(=O)/C(C#N)=C/c2cc(C(F)(F)F)ccn2)C3C)CC1` (mixture of isomers) [Compound B50, (E/Z)-2-(5-((4-(2,6-dimethoxy-4-(1,4,5-trimethyl-6-oxo-1,6-dihydropyridin-3-yl)benzyl)piperazin-1-yl)methyl)-1-methyl-1,2,3,4-tetrahydroisoquinoline-2-carbonyl)-3-(4-(trifluoromethyl)pyridin-2-yl)acrylonitrile], the values for the DC50 in test [1] and in test [2] were less than 1.25 nM and 10 to 25 nM, respectively. In addition, the greatest degradation seen (Dmax) was 70 to 75% in test [1] and more than 75% in test [2].

In the case of `COc1cccnc1/C=C(\C#N)C(=O)N1CCc2c(CN3CCN(Cc4c(OC)cc(-c5cn(C)c(=O)c(C)c5C)cc4OC)CC3)cccc2C1C` (mixture of isomers) [Compound B51, (E/Z)-2-(5-((4-(2,6-dimethoxy-4-(1,4,5-trimethyl-6-oxo-1,6-dihydropyridin-3-yl)benzyl)piperazin-1-yl)methyl)-1-methyl-1,2,3,4-tetrahydroisoquinoline-2-carbonyl)-3-(3-methoxypyridin-2-yl)acrylonitrile], the 50% degradation concentration (DC50) in test [1] was 1.25 to 10 nM. Further, the maximal degradation (Dmax) was in the range of 40 to 70% in test [1] and 25 to 40% in test [2].

`COc1ccnc(/C=C(\C#N)C(=O)N2CCc3c(CN4CCN(Cc5c(OC)cc(-c6cn(C)c(=O)c(C)c6C)cc5OC)CC4)cccc3C2C)c1` (mixture of isomers) [Compound B52, (E/Z)-2-(5-((4-(2,6-dimethoxy-4-(1,4,5-trimethyl-6-oxo-1,6-dihydropyridin-3-yl)benzyl)piperazin-1-yl)methyl)-1-methyl-1,2,3,4-tetrahydroisoquinoline-2-carbonyl)-3-(4-methoxypyridin-2-yl)acrylonitrile]: the 50% degradation concentration (DC50) in test [1] was less than 1.25 nM; in test [2] it was 25 to 1000 nM. For the same compound, the Dmax in test [1] was 70 to 75%; in test [2] it was 40 to 70%.

As to `COc1ccc(/C=C(\C#N)C(=O)N2CCc3c(CN4CCN(Cc5c(OC)cc(-c6cn(C)c(=O)c(C)c6C)cc5OC)CC4)cccc3C2C)nc1` (mixture of isomers) [Compound B53, (E/Z)-2-(5-((4-(2,6-dimethoxy-4-(1,4,5-trimethyl-6-oxo-1,6-dihydropyridin-3-yl)benzyl)piperazin-1-yl)methyl)-1-methyl-1,2,3,4-tetrahydroisoquinoline-2-carbonyl)-3-(5-methoxypyridin-2-yl)acrylonitrile], in test [1], the DC50 was 1.25 to 10 nM and the Dmax was 40 to 70%. In addition, the Dmax in test [2] fell in the range of 40 to 70%.
